Laboratory results: PubChem BioAssay (NCI)
“And” between values parts separate entries of the source, which are not always exact repeats. Identical values can stand only once.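 Interpolation was linear, between the two tested concentrations surrounding the appropriate level; five concentrations were tested over 48 hours in 96-well plates. Abbreviation: GI50, concentration required for 50% inhibition of growth. Definition used: TGI = concentration required for complete inhibition of growth.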

How the values were obtained:
Assay in all cases: NCI anticancer screen, dose series, 48 h
[1] = tested on: OVCAR-4 ovarian
[2] = tested on: CAKI-1 renal
[3] = tested on: HL-60(TB) leukemia
[4] = tested on: MCF7 breast
[5] = tested on: NCI-H460 lung
[6] = tested on: NCI/ADR-RES ovarian
[7] = tested on: DU-145 prostate
[8] = tested on: NCI-H226 lung
[9] = tested on: SK-MEL-5 melanoma
[10] = tested on: OVCAR-3 ovarian
[11] = tested on: SK-OV-3 ovarian
[12] = tested on: SF-268 CNS
[13] = tested on: HOP-62 NSCLC
[14] = tested on: MALME-3M melanoma
[15] = tested on: COLO 205 colon
[16] = tested on: SF-295 CNS
[17] = tested on: EKVX NSCLC
[18] = tested on: HCT-116 colon
[19] = tested on: SN12C renal
[20] = tested on: BT-549 breast
[21] = tested on: OVCAR-8 ovarian
[22] = tested on: PC-3 prostate
[23] = tested on: MDA-MB-435
[24] = tested on: CCRF-CEM leukemia
[25] = tested on: HOP-92 NSCLC
[26] = tested on: IGROV1 ovarian
[27] = tested on: HCC-2998 colon
[28] = tested on: SK-MEL-2 melanoma
[29] = tested on: LOX IMVI melanoma
[30] = tested on: KM12 colon
[31] = tested on: HT29 colon
[32] = tested on: ACHN renal
[33] = tested on: SNB-19 CNS
[34] = tested on: RPMI-8226 leukemia
[35] = tested on: RXF 393 renal
[36] = tested on: UACC-257 melanoma
[37] = tested on: OVCAR-5 ovarian
[38] = tested on: UACC-62 melanoma
[39] = tested on: SR leukemia
[40] = tested on: HS 578T breast
[41] = tested on: MDA-N
[42] = tested on: SF-539 CNS
[43] = tested on: A549 NSCLC
[44] = tested on: K-562 leukemia
[45] = tested on: SNB-75 CNS
[46] = tested on: M14 melanoma
[47] = tested on: A498 renal
[48] = tested on: UO-31 renal
[49] = tested on: MOLT-4 leukemia
[50] = tested on: 786-0 renal
[51] = tested on: SW-620 colon
[52] = tested on: TK-10 renal
[53] = tested on: NCI-H522 lung
[54] = tested on: NCI-H23 lung
[55] = tested on: HCT-15 colon
[56] = tested on: SK-MEL-28 melanoma
[57] = tested on: T-47D breast
[58] = tested on: U251 CNS
[59] = tested on: MDA-MB-231 breast

SMILES: Cc1ccc(NS(=O)(=O)c2cccc(C#N)c2)c2[nH]cc(C#N)c12
- GI50 [1]: 2.65 µM and 8.22 µM
- TGI [1]: 87.2 µM and 51.2 µM
- GI50 [2]: 3.69 µM and 15.7 µM
- TGI [2]: > 96.8 µM
- GI50 [3]: 20.1 µM and 26.8 µM
- TGI [3]: 65.4 µM and > 82.2 µM
- GI50 [4]: 2.53 µM and 16.8 µM
- TGI [4]: > 100 µM
- GI50 [5]: 18.1 µM and 22.6 µM
- TGI [5]: > 100 µM
- GI50 [6]: 14.2 µM and 2.49 µM
- TGI [6]: > 92.5 µM
- GI50 [7]: 23.9 µM and 28.8 µM
- TGI [7]: > 100 µM
- GI50 [8]: 22.5 µM and 25.5 µM
- TGI [8]: > 96.4 µM
- GI50 [9]: 15.6 µM and 17 µM
- TGI [9]: 33.5 µM and 43.3 µM
- GI50 [10]: 22 µM and 27.3 µM
- TGI [10]: 60.2 µM and > 94.7 µM
- GI50 [11]: 0.829 µM and 0.361 µM
- TGI [11]: 63.4 µM and 74.1 µM
- GI50 [12]: 35 µM and 30.9 µM
- TGI [12]: > 100 µM
- GI50 [13]: 20.1 µM and 29.8 µM
- TGI [13]: 96.4 µM and > 100 µM
- GI50 [14]: 15.5 µM and 12.9 µM
- TGI [14]: 57.1 µM and 68.2 µM
- GI50 [15]: 14.2 µM and 1.51 µM
- TGI [15]: 53.7 µM and 37.3 µM
- GI50 [16]: 2.85 µM and 2.22 µM
- TGI [16]: 49.7 µM and 52.9 µM
- GI50 [17]: 26.6 µM
- TGI [17]: 80.9 µM
- GI50 [18]: 0.146 µM and 0.157 µM
- TGI [18]: > 100 µM
- GI50 [19]: 25.5 µM and 27.3 µM
- TGI [19]: > 94.7 µM
- TGI [20]: 65.8 µM and 48.4 µM
- GI50 [21]: 19.1 µM and 15.8 µM
- TGI [21]: > 100 µM and 69.3 µM
- GI50 [22]: 12 µM and 19 µM
- TGI [22]: 98.4 µM and > 100 µM
- GI50 [23]: 12.3 µM and 8.31 µM
- TGI [23]: 55.1 µM and 67.4 µM
- GI50 [24]: 11.9 µM and 14.3 µM
- TGI [24]: > 100 µM
- GI50 [25]: 7.78 µM and 12.8 µM
- TGI [25]: 38.1 µM and 48.2 µM
- TGI [26]: > 100 µM
- GI50 [27]: 25.1 µM
- TGI [27]: > 100 µM
- GI50 [28]: 22.5 µM and 15.1 µM
- TGI [28]: 59.7 µM and 52.4 µM
- GI50 [29]: 16.7 µM and 14.9 µM
- TGI [29]: > 100 µM
- GI50 [30]: > 51.5 µM and 23.2 µM
- TGI [30]: > 100 µM
- GI50 [31]: 33.5 µM and 12.5 µM
- TGI [31]: > 100 µM
- GI50 [32]: 12.6 µM and 16.3 µM
- TGI [32]: > 96.7 µM and 98.3 µM
- GI50 [33]: 16.1 µM and 24.6 µM
- TGI [33]: > 100 µM
- GI50 [34]: 18.1 µM and 10.5 µM
- TGI [34]: 76.6 µM and 52.2 µM
- GI50 [35]: 17.6 µM and 1.99 µM
- TGI [35]: 74.3 µM and 68.1 µM
- GI50 [36]: 21.9 µM and 22.5 µM
- TGI [36]: 69.1 µM and 84.7 µM
- GI50 [37]: 16.7 µM and 30.6 µM
- TGI [37]: > 92.7 µM
- GI50 [38]: 7.07 µM and 15.4 µM
- TGI [38]: 32.2 µM and 53.2 µM
- GI50 [39]: 18.2 µM and 6.8 µM
- TGI [39]: > 100 µM
- GI50 [40]: 16.4 µM and 20 µM
- TGI [40]: 78.8 µM and > 96.3 µM
- GI50 [41]: 4.1 µM
- TGI [41]: > 91.6 µM
- GI50 [42]: 16.8 µM and 21.5 µM
- TGI [42]: > 81.2 µM
- GI50 [43]: 17.9 µM and 12.7 µM
- TGI [43]: > 100 µM
- GI50 [44]: 2.59 µM and 5.08 µM
- TGI [44]: > 100 µM
- GI50 [45]: 6.51 µM and 7.05 µM
- TGI [45]: 52.3 µM and 29.4 µM
- GI50 [46]: 20 µM and 16.3 µM
- TGI [46]: > 100 µM
- TGI [47]: 5.32 µM and 51.2 µM
- GI50 [48]: 14.7 µM and 9.17 µM
- TGI [48]: 63.8 µM and 56.3 µM
- GI50 [49]: 8.87 µM and 13.6 µM
- TGI [49]: > 100 µM
- GI50 [50]: 12 µM and 7.67 µM
- TGI [50]: 55.7 µM and > 100 µM
- GI50 [51]: 0.76 µM and 1.7 µM
- TGI [51]: > 100 µM
- GI50 [52]: 24.6 µM and 22.4 µM
- TGI [52]: > 92.5 µM
- TGI [53]: 59.9 µM and 23.2 µM
- GI50 [54]: 27.5 µM and 27.7 µM
- TGI [54]: 84.6 µM and > 100 µM
- GI50 [55]: 6.14 µM and 14.1 µM
- TGI [55]: > 100 µM
- GI50 [56]: 20.2 µM and 7.55 µM
- TGI [56]: 98.5 µM and > 44.9 µM
- GI50 [57]: 5.21 µM and 10.2 µM
- TGI [57]: > 86.4 µM
- GI50 [58]: 17.5 µM and 15.2 µM
- TGI [58]: > 100 µM
- GI50 [59]: 13.6 µM and 22 µM
- TGI [59]: > 85 µM

SMILES: O=c1[nH]nc(-c2ccccc2)n1/N=C/c1ccccc1Cl
- TGI [1]: > 100 µM
- TGI [2]: > 100 µM
- TGI [3]: 48 µM
- TGI [4]: > 100 µM
- TGI [5]: 32.2 µM
- TGI [6]: 67.9 µM
- TGI [7]: > 100 µM
- TGI [8]: > 100 µM
- TGI [9]: 36.1 µM
- TGI [10]: 57.9 µM
- TGI [11]: > 100 µM
- TGI [12]: > 100 µM
- TGI [13]: > 100 µM
- TGI [14]: 86.4 µM
- TGI [15]: > 100 µM
- TGI [16]: > 100 µM
- TGI [17]: > 100 µM
- TGI [18]: > 100 µM
- TGI [19]: > 100 µM
- TGI [20]: > 100 µM
- TGI [21]: > 100 µM
- TGI [22]: 57.6 µM
- TGI [23]: 60.2 µM
- TGI [24]: > 100 µM
- TGI [25]: > 100 µM
- TGI [26]: > 100 µM
- TGI [27]: > 100 µM
- TGI [28]: 46.3 µM
- TGI [29]: > 100 µM
- TGI [30]: 32.6 µM
- TGI [31]: > 100 µM
- TGI [32]: > 100 µM
- TGI [33]: > 100 µM
- TGI [34]: 94.4 µM
- TGI [35]: 67.4 µM
- TGI [36]: > 100 µM
- TGI [37]: > 100 µM
- TGI [38]: 46.5 µM
- TGI [39]: 85.6 µM
- TGI [40]: > 100 µM
- TGI [41]: > 100 µM
- TGI [42]: > 100 µM
- TGI [43]: > 100 µM
- TGI [44]: > 100 µM
- TGI [45]: > 100 µM
- TGI [46]: > 100 µM
- TGI [47]: > 100 µM
- TGI [48]: > 100 µM
- TGI [49]: 56.5 µM
- TGI [50]: > 100 µM
- TGI [51]: > 100 µM
- TGI [52]: > 100 µM
- TGI [53]: 43.9 µM
- TGI [54]: 87.7 µM
- TGI [55]: > 100 µM
- TGI [56]: > 100 µM
- TGI [57]: > 100 µM
- TGI [58]: > 100 µM
- TGI [59]: > 100 µM
